Reference: PubChem BioAssay AID248 (DTP/NCI, 2004)
Where “and” joins values, the source holds several entries; their conditions need not be identical. Equal entries are not always repeated. Toxic doses and inconclusive results are not listed. Cut-off read from the data, not from the text of the source: active = T/C of 150% or more; inactive = T/C below 125%.

Test system: L1210 leukemia ip in BDF1 mice, survival T/C
Assay: NCI In Vivo Anticancer Drug Screen. Data for tumor model L1210 Leukemia (intraperitoneal) in B6D2F1 (BDF1) mice
Settings: endpoint: mean survival time, higher = longer survival
In short: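 Tumor was transplanted into mice, which were then dosed with test compound or vehicle alone. Survival was recorded for each group, and the treated figure was expressed relative to the control figure.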

[1] = dose: 100.0 mg/kg/injection, schedule: Q01DX001 (ip), vehicle: saline
[2] = dose: 200.0 mg/kg/injection, schedule: Q01DX001 (ip), vehicle: saline
[3] = dose: 400.0 mg/kg/injection, schedule: Q01DX001 (ip), vehicle: saline
[4] = dose: 100.0 mg/kg/injection, schedule: Q01DX009 (ip), vehicle: saline with Tween-80
[5] = dose: 200.0 mg/kg/injection, schedule: Q01DX009 (ip), vehicle: saline with Tween-80
[6] = dose: 400.0 mg/kg/injection, schedule: Q01DX009 (ip), vehicle: saline with Tween-80
[7] = dose: 75.0 mg/kg/injection, schedule: Q01DX001 (ip), vehicle: saline
[8] = dose: 150.0 mg/kg/injection, schedule: Q01DX001 (ip), vehicle: saline
[9] = dose: 100.0 mg/kg/injection, schedule: Q04DX002 (ip), vehicle: saline with Tween-80
[10] = dose: 200.0 mg/kg/injection, schedule: Q04DX002 (ip), vehicle: saline with Tween-80
[11] = dose: 400.0 mg/kg/injection, schedule: Q04DX002 (ip), vehicle: saline with Tween-80
[12] = dose: 100.0 mg/kg/injection, schedule: Q01DX009 (ip), vehicle: Klucel (hydroxypropylcellulose) (HPC)
[13] = dose: 200.0 mg/kg/injection, schedule: Q01DX009 (ip), vehicle: Klucel (hydroxypropylcellulose) (HPC)
[14] = dose: 400.0 mg/kg/injection, schedule: Q01DX009 (ip), vehicle: Klucel (hydroxypropylcellulose) (HPC)
[15] = dose: 100.0 mg/kg/injection, schedule: Q04DX003 (ip), vehicle: Klucel (hydroxypropylcellulose) (HPC)
[16] = dose: 200.0 mg/kg/injection, schedule: Q04DX003 (ip), vehicle: Klucel (hydroxypropylcellulose) (HPC)
[17] = dose: 400.0 mg/kg/injection, schedule: Q04DX003 (ip), vehicle: Klucel (hydroxypropylcellulose) (HPC)
[18] = dose: 100.0 mg/kg/injection, schedule: Q04DX003 (ip), vehicle: saline

Measured: T/C

CCN(C(C)=O)c1ccc([N+](=O)[O-])cc1
inactive: [1] 105 % of control | [2] 96 % of control | [3] 105 % of control

Fc1cc(F)c(F)c(Oc2c(F)c(F)c(-c3c(F)c(F)c(F)c(F)c3F)c(F)c2F)c1F
inactive: [4] 104 % of control | [5] 90 % of control | [6] 101 % of control

FC1(F)SC2CCCC2C1(F)F (configuration not stated)
inactive: dose: 3.13 mg/kg/injection, schedule: Q01DX009 (ip), vehicle: saline with Tween-80 95 % of control | dose: 6.25 mg/kg/injection, schedule: Q01DX009 (ip), vehicle: saline with Tween-80 106 % of control | dose: 12.5 mg/kg/injection, schedule: Q01DX009 (ip), vehicle: saline with Tween-80 95 % of control and 101 % of control | dose: 12.5 mg/kg/injection, schedule: Q04DX003 (ip), vehicle: saline with Tween-80 101 % of control | dose: 25.0 mg/kg/injection, schedule: Q04DX003 (ip), vehicle: saline with Tween-80 104 % of control | dose: 50.0 mg/kg/injection, schedule: Q04DX003 (ip), vehicle: saline with Tween-80 95 % of control

CO/C([O-])=N/S(=O)(=O)n1cc[n+](C)c1
inactive: dose: 75.0 mg/kg/injection, schedule: Q01DX009 (ip), vehicle: Klucel (hydroxypropylcellulose) (HPC) 98 % of control | dose: 150.0 mg/kg/injection, schedule: Q01DX009 (ip), vehicle: Klucel (hydroxypropylcellulose) (HPC) 86 % of control | dose: 300.0 mg/kg/injection, schedule: Q01DX009 (ip), vehicle: Klucel (hydroxypropylcellulose) (HPC) 95 % of control

CCC(C)COC(=O)c1cccc2c1-c1ccccc1C2=O (configuration not stated)
inactive: dose: 100.0 mg/kg/injection, schedule: Q01DX001 (ip), vehicle: other 98 % of control | dose: 200.0 mg/kg/injection, schedule: Q01DX001 (ip), vehicle: other 88 % of control | dose: 400.0 mg/kg/injection, schedule: Q01DX001 (ip), vehicle: other 93 % of control

C[n+]1cc(C#N)cc(C#N)c1
inactive: [7] 90 % of control | [8] 108 % of control

CC(C)=CCCC(C)CCOc1cccc(C)c1 (configuration not stated)
inactive: [9] 105 % of control | [10] 99 % of control | [11] 89 % of control

O=C(c1ccccc1)c1[nH]c2ccccc2c1-c1ccccc1
inactive: [9] 103 % of control | [10] 107 % of control | [11] 100 % of control

Cc1ccnc(NC(=O)Nc2ccc(F)c([N+](=O)[O-])c2)c1
inactive: [12] 91 % of control | [13] 96 % of control | [14] 104 % of control

Cc1ccc(S(=O)(=O)Oc2cc(C)ccc2C)cc1
inactive: [4] 100 % of control | [15] 97 % of control | [5] 93 % of control | [16] 92 % of control | [6] 101 % of control | [17] 91 % of control

O=C(Nc1cccc2ccccc12)c1ccc(Cl)cc1Cl
inactive: [12] 103 % of control | [13] 100 % of control | [14] 96 % of control

CN(C)C(c1ccccc1)C(O)c1ccccc1 (configuration not stated)
inactive: [7] 94 % of control and 98 % of control | [8] 97 % of control and 102 % of control | dose: 300.0 mg/kg/injection, schedule: Q01DX001 (ip), vehicle: saline 89 % of control and 96 % of control

O=P(NCCCl)(NCCCl)c1ccccc1
inactive: dose: 100.0 mg/kg/injection, schedule: Q04DX002 (ip), vehicle: Klucel (hydroxypropylcellulose) (HPC) 118 % of control | dose: 200.0 mg/kg/injection, schedule: Q04DX002 (ip), vehicle: Klucel (hydroxypropylcellulose) (HPC) 100 % of control | dose: 400.0 mg/kg/injection, schedule: Q04DX002 (ip), vehicle: Klucel (hydroxypropylcellulose) (HPC) 96 % of control

Nc1cc(S(=O)(=O)F)cc(Cl)c1O
inactive: [12] 105 % of control | [13] 103 % of control

CN(C)S(=O)(=O)c1ccc(C=C(c2ccccc2)c2ccccc2)cc1
inactive: [15] 95 % of control | [16] 94 % of control | [17] 91 % of control

COC(=O)C1=CC(C(=O)OC)C(C(=O)OC)N2C=CSC2=C1 (configuration not stated)
inactive: dose: 25.0 mg/kg/injection, schedule: Q04DX003 (ip), vehicle: saline 93 % of control | dose: 50.0 mg/kg/injection, schedule: Q04DX003 (ip), vehicle: saline 100 % of control | [18] 96 % of control

Cc1ccc(-c2cc(-c3ccccc3)n(-c3ccccc3)n2)cc1
inactive: dose: 100.0 mg/kg/injection, schedule: Q01DX009 (ip), vehicle: other 103 % of control | dose: 200.0 mg/kg/injection, schedule: Q01DX009 (ip), vehicle: other 96 % of control | dose: 400.0 mg/kg/injection, schedule: Q01DX009 (ip), vehicle: other 95 % of control

CC(Cl)C(=O)NC(C)C(=O)O (configuration not stated)
inactive: dose: 12.5 mg/kg/injection, schedule: Q04DX002 (ip), vehicle: saline 97 % of control | dose: 25.0 mg/kg/injection, schedule: Q04DX002 (ip), vehicle: saline 111 % of control | dose: 50.0 mg/kg/injection, schedule: Q04DX002 (ip), vehicle: saline 97 % of control

O=C(SCc1ccccc1)c1cccnc1
inactive: dose: 100.0 mg/kg/injection, schedule: Q04DX003 (ip), vehicle: saline with Tween-80 99 % of control

O=C1C=CC(=O)N1CN1CCOCC1 (tested in a mixture with another compound)
inactive: dose: 6.25 mg/kg/injection, schedule: Q01DX009 (ip), vehicle: saline 92 % of control | dose: 12.5 mg/kg/injection, schedule: Q01DX009 (ip), vehicle: saline 100 % of control | dose: 100.0 mg/kg/injection, schedule: Q01DX001 (ip), vehicle: Klucel (hydroxypropylcellulose) (HPC) 103 % of control and 100 % of control | dose: 200.0 mg/kg/injection, schedule: Q01DX001 (ip), vehicle: Klucel (hydroxypropylcellulose) (HPC) 103 % of control and 100 % of control and 97 % of control | dose: 400.0 mg/kg/injection, schedule: Q01DX001 (ip), vehicle: Klucel (hydroxypropylcellulose) (HPC) 95 % of control [middle of 4 runs]

CCNC(=O)OCc1cc(Cl)cc(Cl)c1OC(=O)NCC
inactive: dose: 100.0 mg/kg/injection, schedule: Q01DX001 (ip), vehicle: carboxymethylcellulose (CMC) 103 % of control | dose: 200.0 mg/kg/injection, schedule: Q01DX001 (ip), vehicle: carboxymethylcellulose (CMC) 97 % of control | dose: 400.0 mg/kg/injection, schedule: Q01DX001 (ip), vehicle: carboxymethylcellulose (CMC) 106 % of control

COC(=O)/C=C(\C(=O)OC)N(C)c1ccccc1
inactive: dose: 50.0 mg/kg/injection, schedule: Q01DX001 (ip), vehicle: other 106 % of control

O=C(O)CC/C(=N/O)c1ccccc1
inactive: dose: 50.0 mg/kg/injection, schedule: Q01DX009 (ip), vehicle: Klucel (hydroxypropylcellulose) (HPC) 93 % of control | [12] 98 % of control | [13] 92 % of control

O=C1c2ccccc2C(=O)N1[N+](=O)[O-]
inactive: dose: 50.0 mg/kg/injection, schedule: Q01DX001 (ip), vehicle: saline 101 % of control | [1] 107 % of control | [2] 107 % of control | [3] 103 % of control

O=c1cccc[nH]1
inactive: dose: 25.0 mg/kg/injection, schedule: Q01DX009 (ip), vehicle: saline 100 % of control | dose: 45.0 mg/kg/injection, schedule: Q01DX009 (ip), vehicle: saline 91 % of control | dose: 50.0 mg/kg/injection, schedule: Q01DX009 (ip), vehicle: saline 106 % of control and 93 % of control | dose: 65.0 mg/kg/injection, schedule: Q01DX009 (ip), vehicle: saline 104 % of control | dose: 100.0 mg/kg/injection, schedule: Q01DX009 (ip), vehicle: saline 96 % of control and 110 % of control and 91 % of control | dose: 100.0 mg/kg/injection, schedule: Q04DX002 (ip), vehicle: saline 95 % of control | [18] 91 % of control | dose: 150.0 mg/kg/injection, schedule: Q01DX009 (ip), vehicle: saline 102 % of control | dose: 200.0 mg/kg/injection, schedule: Q01DX009 (ip), vehicle: saline 109 % of control and 110 % of control | dose: 200.0 mg/kg/injection, schedule: Q04DX002 (ip), vehicle: saline 100 % of control | dose: 200.0 mg/kg/injection, schedule: Q04DX003 (ip), vehicle: saline 91 % of control | dose: 400.0 mg/kg/injection, schedule: Q04DX003 (ip), vehicle: saline 92 % of control
